Assay results from US20250129095A1, “ANNULATED 2-AMINO-3-CYANO THIOPHENES AND DERIVATIVES FOR THE TREATMENT OF CANCER” (Boehringer Ingelheim Int'l GmbH Corp., priority 2021, published 2025).

Experiments:
LOVO cells = experiment: LOVO CTG proliferation assay (120 h) (CRC, G13D); type: cell-based; settings: Homo sapiens
Protocol: LOVO cells (ATCC CCL-229) are dispensed into 384-well plates, flat and clear bottom (Greiner, PNr. 781091) at a density of 1000 cells per well in 60 μL DMEM (Sigma D6429)+10% Fetal Calf Serum (HyClone, PNr.: SH30084.03) and incubated at 37° C. in a CO2 incubator overnight. The next day, compounds (10 mM stock in DMSO) are added with the ECHO acoustic liquid handler system (Beckman Coulter), including DMSO controls. Plates are incubated for 120 h, and cell viability is measured using CellTiter-Glo luminescent cell viability reagent (Promega product code G7570). Viability (stated as percent of control) is defined as relative luminescence units RLU of each well divided by the RLU of cells in DMS0 controls. IC50 values are determined from viability measurements by non-linear regression using a four-parameter model.

KRAS (G12D)::SOS1 = target: T1, KRAS (G12D)::SOS1 (Homo sapiens, UniProt P01116, G12D); experiment: KRAS::SOS1 AlphaScreen binding assay, KRAS G12D; settings: read-out: KRASG12D IC50
T1 construct: KRAS (G12D) 1-169, N-terminal 6His-tag, C-terminal avi-tag; 6His-tag (N); purchased Xtal BioStructures, Inc. (KRAS); Viva Biotech Ltd (SOS1)
T1 sequence (P01116 1-169 isoform P01116-2 G12D): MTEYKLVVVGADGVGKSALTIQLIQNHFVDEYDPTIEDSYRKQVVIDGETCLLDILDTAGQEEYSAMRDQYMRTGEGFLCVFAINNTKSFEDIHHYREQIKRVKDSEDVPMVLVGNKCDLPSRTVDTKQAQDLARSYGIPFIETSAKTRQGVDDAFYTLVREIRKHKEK
Excerpt: This assay can be used to examine the potency with which compounds according to the invention binding to (mutated) KRAS inhibit the protein-protein interaction between SOS1 and (mutated) KRAS e.g., KRAS WT, KRAS G12C, KRAS G12D, KRAS G12V, KRAS G13D. […] Low IC50 values in this assay setting are indicative of strong inhibition of protein-protein interaction between SOS1 and KRAS:
These assays measure the inhibitory effect of compounds on KRAS mutant protein-protein interactions using the Alpha Screen technology by Perkin Elmer
The following (mutant) enzyme forms of KRAS and interacting proteins are used in these assays at the given concentrations: • KRAS (G12D) 1-169, N-terminal 6His-tag, C-terminal avi-tag (Xtal BioStructures, Inc.); final assay concentration 10 nM and SOS1 564-1049, N-terminal 229 GST-tag, TEV cleavage site (Viva Biotech Ltd); final assay concentration 5 nM; • KRAS (G12C) 1-169, N-terminal 6His-tag for purification, cleaved off, C-terminal avi-tag, biotinylated, mutations: C51S, C80L, C118S (in house); final assay concentration 7.5 nM and SOS1 564-1049, N-terminal 229 GST-tag, TEV cleavage site (Viva Biotech Ltd); final assay concentration 5 nM; • KRAS (G12V) 1-169, N-terminal 6His-tag for purification, cleaved off, C-terminal avi-tag, biotinylated, TEV cleavage site, mutation: C118S, GDP loaded (in house); final assay concentration 10 nM and SOS1 564-1049, N-terminal 229 GST-tag, TEV cleavage site (Viva Biotech Ltd); final assay concentration 10 nM; • KRAS (G13D) 1-169, N-terminal 6His-tag for purification, cleaved off, C-terminal avi-tag, biotinylated, TEV cleavage site, mutation: C118S, GDP loaded (in house); final assay concentration 10 nM and SOS1 564-1049, N-terminal 229 GST-tag, TEV cleavage site (Viva Biotech Ltd); final assay concentration 10 nM; • KRAS (WT) 1-169, N-terminal 6His-tag for purification, cleaved off, C-terminal avi-tag, biotinylated, TEV cleavage site, mutation: C118S, GDP loaded (in house); final assay concentration 10 nM and SOS1 564-1049, N-terminal 229 GST-tag, TEV cleavage site (Viva Biotech Ltd); final assay concentration 10 nM.
Test compounds dissolved in DMSO are dispensed onto assay plates (Proxiplate 384 PLUS, white, PerkinElmer; 6008289) using an Access Labcyte Workstation with the Labcyte Echo 55×. For the chosen highest assay concentration of 100 μM, 150 nL of compound solution are transferred from a 10 mM DMSO compound stock solution. A series of eleven fivefold dilutions per compound are transferred to the assay plate, compound dilutions are tested in duplicates. DMSO are added as backfill to a total volume of 150 nL.
The assays run on a fully automated robotic system in a darkened room below 100 Lux. To 150 nl of compound dilution 10 μl of a mix including KRAS mutant protein, SOS1 (final assay concentrations see above) and GDP nucleotide (Sigma G7127; final assay concentration 10 μM) in assay buffer (1×PBS, 0.1% BSA, 0.05% Tween 20) are added into columns 1-24.
After 30 minutes incubation time 5 μl of Alpha Screen bead mix in assay buffer are added into columns 1-23. Bead mix consists of AlphaLISA Glutathione Acceptor Beads (PerkinElmer, Cat No AL109) and AlphaScreen Streptavidin Donor Beads (PerkinElmer Cat No 6760002) in assay buffer at a final assay concentration of 10 μg/ml each.
Plates are kept at room temperature in a darkened incubator. After an additional 60 minutes incubation time the signal is measured in a PerkinElmer Envision HTS Multilabel Reader using the AlphaScreen specs from PerkinElmer.
Each plate contains up to 16 wells of a negative control depending on the dilution procedure (platewise or serial) (DMSO instead of test compound; with KRAS mutant::SOS1 GDP mix and bead mix; column 23) and 16wells of a positive control (DMSO instead of test compound; with KRAS mutant::SOS1 GDP mix w/o bead mix; column 24).
As internal control known inhibitors of KRAS mutant::SOS1 interaction can be measured on each compound plate. […]

KRAS G12C Ba/F3 = KRAS G12C Ba/F3 (Homo sapiens, UniProt P01116, G12C, cells depend on it); experiment: Ba/F3 proliferation assay, KRAS G12C; type: cell-based; settings: 72 h, AlamarBlue, read-out: KRAS G12C Ba/F3 IC50
Chain of KRAS G12C Ba/F3 (P01116 whole entry G12C, canonical isoform): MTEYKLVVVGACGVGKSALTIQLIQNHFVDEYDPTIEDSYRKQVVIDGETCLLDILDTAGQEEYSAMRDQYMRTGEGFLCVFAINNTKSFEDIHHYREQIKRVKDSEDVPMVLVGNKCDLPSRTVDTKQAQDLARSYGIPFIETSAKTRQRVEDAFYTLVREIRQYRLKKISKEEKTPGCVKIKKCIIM
Protocol: Plasmids containing KRASG12 mutants(i.e. G12D, G12C, G12V) are obtained from GeneScript. To generate KRASG12-dependent Ba/F3 models, Ba/F3 cells are transduced with retroviruses containing vectors that harbor KRASG12 isoforms. Platinum-E cells (Cell Biolabs) are used for retrovirus packaging. Retrovirus is added to Ba/F3 cells. To ensure infection, 4 μg/mL polybrene is added and cells are spinfected. […] Cells with an infection efficiency of 10% to 20% are further cultivated and puromycin selection with 1 μg/mL is initiated. As a control, parental Ba/F3 cells are used to show selection status. Selection is considered successful when parental Ba/F3 cells cultures died. To evaluate the transforming potential of KRASG12 mutations, the growth medium is no longer supplemented with IL-3. Ba/F3 cells harboring the empty vector are used as a control. Approximately ten days before conducting the experiments, puromycin is left out.
Compounds are added using an Access Labcyte Workstation with a Labcyte Echo 550 or 555 accoustic dispenser. All treatments are performed in technical duplicates. […] AlamarBlue™ (ThermoFisher), a viability stain, is added and fluorescence measured in the PerkinElmer Envision HTS Multilabel Reader. The raw data are imported into and analyzed with the Boehringer Ingelheim proprietary software MegaLab (curve fitting based on the program PRISM, GraphPad Inc.).

| SMILES | IC50 (LOVO cells) | IC50 (KRAS (G12D)::SOS1) | GI50 (KRAS G12C Ba/F3) |
| --- | --- | --- | --- |
| C[C@H](Oc1cc(O[C@H]2CNC(C)(C)C2)nc(-c2noc3c2CCC[C@@]32CCCc3sc(N)c(C#N)c32)n1)[C@@H]1CCCN1C (single isomer, unassigned) [II-8] | 501 nM | 1 nM | 592 nM |
| C[C@H](Oc1cc(Oc2nccs2)nc(-c2onc3c2CCC[C@@]32CCCc3sc(N)c(C#N)c32)n1)[C@@H]1CCCN1C [Example I-1] | 54 nM | 2 nM | 4 nM |
| C[C@H](Oc1cc(Oc2cccnc2)nc(-c2onc3c2CCC[C@@]32CCCc3sc(N)c(C#N)c32)n1)[C@@H]1CCCN1C [Example I-2] | 32 nM | 1 nM | 4 nM |
| C[C@H](Oc1cc(Oc2cncnc2)nc(-c2onc3c2CCC[C@@]32CCCc3sc(N)c(C#N)c32)n1)[C@@H]1CCCN1C [Example I-3] | 35 nM | 1 nM | 4 nM |
| C[C@H](Oc1cc(N[C@H]2CCOC2)nc(-c2onc3c2CCC[C@@]32CCCc3sc(N)c(C#N)c32)n1)[C@@H]1CCCN1C [Example I-4] | 575 nM | 4 nM | 83 nM |
| COC[C@H](C)Nc1cc(O[C@@H](C)[C@@H]2CCCN2C)nc(-c2onc3c2CCC[C@@]32CCCc3sc(N)c(C#N)c32)n1 [Example I-5] | – | 12 nM | 71 nM |
| C[C@H](Oc1cc(Nc2ccccn2)nc(-c2onc3c2CCC[C@@]32CCCc3sc(N)c(C#N)c32)n1)[C@@H]1CCCN1C [Example I-6] | 595 nM | 4 nM | 58 nM |
| C[C@H](Oc1cc(Sc2ncccn2)nc(-c2onc3c2CCC[C@@]32CCCc3sc(N)c(C#N)c32)n1)[C@@H]1CCCN1C [Example I-7] | 3240 nM | 6 nM | 75 nM |
| C[C@H](Oc1cc(OCC2(N(C)C)COC2)nc(-c2onc3c2CCC[C@@]32CCCc3sc(N)c(C#N)c32)n1)[C@@H]1CCCN1C [Example I-8] | 27 nM | 2 nM | 51 nM |
| C[C@H](Oc1cc(Oc2cncnc2)nc(-c2noc3c2CCC[C@@]32CCCc3sc(N)c(C#N)c32)n1)[C@@H]1CCCN1C [II-1] | 433 nM | 1 nM | 4 nM |
| C[C@H](Oc1cc(Oc2nccs2)nc(-c2noc3c2CCC[C@@]32CCCc3sc(N)c(C#N)c32)n1)[C@@H]1CCCN1C [II-2] | 53 nM | 2 nM | 5 nM |
| C[C@H](Oc1cc(Oc2ccon2)nc(-c2noc3c2CCC[C@@]32CCCc3sc(N)c(C#N)c32)n1)[C@@H]1CCCN1C [II-3] | 102 nM | 2 nM | 17 nM |
| C[C@H](Oc1cc(O[C@H]2CCOC2)nc(-c2noc3c2CCC[C@@]32CCCc3sc(N)c(C#N)c32)n1)[C@@H]1CCCN1C [II-4] | 93 nM | 2 nM | 12 nM |
